PubChem BioAssay (NCI)
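96-well plates; 48 h exposure; 5 concentrations. Endpoints by linear interpolation between flanking doses. Not reached: highest tested concentration assigned. At the TGI there is no net growth.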

How the values were obtained:
Experiment in all cases: DTP human tumour cell line panel, 48 h
[1] = system: HT29 colon
[2] = system: M14 melanoma
[3] = system: SW-620 colon
[4] = system: KM12 colon
[5] = system: OVCAR-8 ovarian
[6] = system: OVCAR-4 ovarian
[7] = system: HCC-2998 colon
[8] = system: NCI-H226 lung
[9] = system: SR leukemia

Structure (SMILES)	TGI [1] [µM]	TGI [2] [µM]	TGI [3] [µM]	TGI [4] [µM]	TGI [5] [µM]	TGI [6] [µM]	TGI [7] [µM]	TGI [8] [µM]	TGI [9] [µM]
COS(=O)CCOC(=O)c1ccccc1SSc1ccccc1C(=O)OCCS(=O)OC (configuration not stated)	28.8	57.8	87.4	> 100	81.2	34.9			
C[Si](C)(C)[C@@]1([Se]c2ccccc2)CC[C@@H]1C(=O)c1ccccc1	> 100	> 100	> 100	> 100	> 100	> 100	> 100	> 100	
COc1ccccc1OCC(COC(=O)Nc1ccc(C)cc1)OC(=O)Nc1ccc(C)cc1 (configuration not stated)	38.3	46.2	28.1	43.4	38.4		35.3	67.5	59.6
Clc1cccc(C2SCc3nc4ccccc4n32)c1Cl (configuration not stated)	27.5	30.5	30.8		37	27			
O=[N+]([O-])C(=C(c1ccccc1)c1ccccc1)[N+](=O)[O-]		25.4	25.4	30.2	21.5	28.6	24	61.5	28.5
C=C1C(=O)C23C(CC(OC(C)=O)C1[C@@H]2OC(C)=O)C1(C)C(OC(C)=O)CCC(C)(C)C1C[C@@H]3OC(C)=O (some centres not stated)	2.22	2.92	2.75	3.49	1.59	3.41	3.24	3.13	
O=C(O)CNS(=O)(=O)c1ccc(NC(=O)c2cccc([N+](=O)[O-])c2)cc1	> 100	> 100	> 100	> 100	> 100	> 100	> 100	> 100	
CC1=C[C@H]2C[C@@]3(C)O[C@@H]([C@]4(C)CC[C@H]([C@@H](C)C(=O)O)OO4)CC3C(C)(C)[C@H]2CC1 (some centres not stated)	1.77	2.96	0.856	1.65	3.54	2.9	2.28	3.82	
O=C(O)c1oc2ccc([N+](=O)[O-])c3c2c1CCC3	> 100	> 100	> 100	> 100	> 100	> 100	> 100	> 100	
O=C(NNc1ccc([N+](=O)[O-])cc1)C1OC(CO)C(O)C1O (configuration not stated)	> 100	> 100	71.3	> 100	> 100	> 100	> 100	> 100	
C[P+](C)(CC(F)(F)F)c1ccccc1	> 100	> 100	> 100	> 100	> 100		> 100	> 100	> 100
NC(=O)Cn1c(=O)[nH]c(=O)c2[nH]cnc21	> 100	> 100	> 100	> 100	> 100		> 100	> 100	> 100
COc1ccc(/C=C/CO)cc1OC	> 100		> 100	> 100	> 100		> 100	> 100	> 100
Cc1ccc(NC(=O)NC23CC4CC(CC(F)(C4)C2)C3)cc1	> 100	> 100	> 100	> 100	> 100		> 100		
OCC1CC2CC1C1(C2)OCCO1 (configuration not stated)	> 100	> 100	> 100	> 100	> 100	> 100		> 100	> 100
COc1ccc2c(c1)[n+]([O-])c(-c1ccc(Cl)c(Cl)c1)c(N)[n+]2[O-]	> 100	72.2	> 100	> 100	> 100	> 100		> 100	> 100
O=C1C=Cc2noc3cccc1c23	79.7	23.2	16.2	19.1	8.13	4.82	28.6	35.1	
CN(C)/C(=N/C(=O)Nc1ccccc1)SCc1ccccc1	> 100	> 100	> 100	> 100	> 100	> 100	> 100	> 100	
CC(=O)Nc1[nH]c(=O)[nH]c(=O)c1N(C(C)=O)C(C)=O	> 100	> 100	> 100	> 100	> 100	> 100	> 100	> 100	
CCCC/C(C)=N/NC(N)=S	> 100	> 100	> 100	> 100	> 100		> 100	> 100	> 100
CC12CC(=O)NN=C1c1ccccc1C2 (configuration not stated)	> 100	> 100	> 100	> 100	> 100		> 100	> 100	
Cc1ccc(NC(=O)CCC(=O)C(C#N)c2ccc(Cl)cc2)cc1C (configuration not stated)	> 100	> 100	> 100	> 100	> 100	> 100	> 100	> 100	
